In ChEMBL document CHEMBL1201862, “PubChem BioAssay data set” (2004):
Calls of active or inactive are those of the source.

Key:
[1] = HepG2 cell cytotoxicity, dose response, cytotoxicity control for non-replicating M. tuberculosis project (AID 489018); type: functional; conditions: Mycobacterium tuberculosis
[2] = target: T1, Eukaryotic translation initiation factor 2-alpha kinase 3 (Homo sapiens, UniProt Q9NZJ5); test: Dose response cell-based high-throughput screening assay to measure PERK inhibition. [Related pubchem assays: 1416 ]; type: functional
T1 sequence (Q9NZJ5 whole entry): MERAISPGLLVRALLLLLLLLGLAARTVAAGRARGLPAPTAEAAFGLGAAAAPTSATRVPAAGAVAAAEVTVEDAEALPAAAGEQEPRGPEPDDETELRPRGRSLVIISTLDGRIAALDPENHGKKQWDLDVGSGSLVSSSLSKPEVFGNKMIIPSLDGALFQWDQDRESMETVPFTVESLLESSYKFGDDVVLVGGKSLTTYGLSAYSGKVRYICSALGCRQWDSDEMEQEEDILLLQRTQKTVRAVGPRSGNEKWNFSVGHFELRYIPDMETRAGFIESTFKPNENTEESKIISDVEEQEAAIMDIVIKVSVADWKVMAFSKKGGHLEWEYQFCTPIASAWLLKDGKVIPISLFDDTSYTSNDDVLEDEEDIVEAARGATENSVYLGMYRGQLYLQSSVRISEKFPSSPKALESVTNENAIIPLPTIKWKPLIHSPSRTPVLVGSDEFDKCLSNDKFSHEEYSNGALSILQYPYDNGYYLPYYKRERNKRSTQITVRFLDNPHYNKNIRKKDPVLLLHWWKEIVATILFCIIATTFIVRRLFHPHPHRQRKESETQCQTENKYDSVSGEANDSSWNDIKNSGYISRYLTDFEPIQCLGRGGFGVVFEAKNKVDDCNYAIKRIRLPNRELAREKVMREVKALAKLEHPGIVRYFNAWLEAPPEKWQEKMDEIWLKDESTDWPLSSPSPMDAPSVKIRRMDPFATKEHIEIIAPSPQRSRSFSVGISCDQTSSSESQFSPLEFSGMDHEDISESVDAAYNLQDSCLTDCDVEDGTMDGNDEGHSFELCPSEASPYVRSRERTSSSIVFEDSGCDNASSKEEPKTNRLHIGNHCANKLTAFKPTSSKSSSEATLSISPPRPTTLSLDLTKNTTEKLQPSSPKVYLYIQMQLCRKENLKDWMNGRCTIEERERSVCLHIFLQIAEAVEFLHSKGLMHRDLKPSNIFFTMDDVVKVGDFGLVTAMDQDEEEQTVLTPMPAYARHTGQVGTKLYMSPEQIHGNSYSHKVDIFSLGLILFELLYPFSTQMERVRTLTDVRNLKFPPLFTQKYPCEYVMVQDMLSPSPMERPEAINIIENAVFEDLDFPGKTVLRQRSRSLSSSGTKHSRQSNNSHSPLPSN

[3] = THP-1 cell cytotoxicity, dose response, cytotoxicity control for non-replicating M. tuberculosis project (AID 489025); type: functional
[4] = Vero E6 cell cytotoxicity, dose response, cytotoxicity control for non-replicating M. tuberculosis project, secondary assay (AID 492998); type: functional, VeroE6; conditions: Vero C1008
[5] = target: T1, Eukaryotic translation initiation factor 2-alpha kinase 3; test: Counterscreen assay for PERK inhibitors: Dose response cell-based high throughput screening assay to measure inhibition of PERK at 6 hours. [Related pubchem assays: 1522, 1416 ]; type: functional
[6] = target: Melanin-concentrating hormone receptor 1 (Homo sapiens, UniProt Q99705); test: Fluorescence-based counterscreen for antagonists of the G-protein coupled receptor 7 (GPR7): cell-based high throughput dose response assay to identify antagonists of the melanin-concentrating hormone receptor 1 (MCHR1).; type: functional
Chain of Melanin-concentrating hormone receptor 1 (Q99705 whole entry): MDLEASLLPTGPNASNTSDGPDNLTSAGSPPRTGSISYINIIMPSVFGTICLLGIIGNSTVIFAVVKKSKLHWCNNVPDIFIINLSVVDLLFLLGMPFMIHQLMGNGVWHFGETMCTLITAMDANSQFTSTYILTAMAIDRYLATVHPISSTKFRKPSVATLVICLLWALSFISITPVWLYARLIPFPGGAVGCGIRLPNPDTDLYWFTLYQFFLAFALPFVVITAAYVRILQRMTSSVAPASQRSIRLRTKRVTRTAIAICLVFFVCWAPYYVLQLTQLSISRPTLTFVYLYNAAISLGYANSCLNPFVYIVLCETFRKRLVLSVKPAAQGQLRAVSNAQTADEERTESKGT

[7] = target: T2, Neuropeptides B/W receptor type 1 (Homo sapiens, UniProt P48145); test: Fluorescence-based dose response cell-based high throughput screening assay to identify antagonists of the G-protein coupled receptor 7 (GPR7). [Related pubchem assays: 1952 (Screening assay (GPR7 antagonists).), 1880 (Summary AID.)]; type: functional
T2 sequence (P48145 whole entry): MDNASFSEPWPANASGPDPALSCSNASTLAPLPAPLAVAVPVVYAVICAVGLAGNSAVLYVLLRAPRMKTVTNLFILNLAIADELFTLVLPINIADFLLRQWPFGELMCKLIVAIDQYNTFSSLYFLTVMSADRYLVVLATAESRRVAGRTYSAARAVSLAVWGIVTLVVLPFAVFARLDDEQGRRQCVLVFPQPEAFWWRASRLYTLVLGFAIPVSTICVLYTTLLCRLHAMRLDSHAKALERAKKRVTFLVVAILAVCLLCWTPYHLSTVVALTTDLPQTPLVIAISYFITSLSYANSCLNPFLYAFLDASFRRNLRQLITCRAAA

[8] = A cytotoxicity screen of small molecule inhibitors of the PhoP region in Salmonella typhi identified in the primary screen. [Related pubchem assays: 1850, 1864, 1985 ]; type: functional
[9] = target: T3, Tyrosine-protein phosphatase non-receptor type 7 (Homo sapiens, UniProt P35236); type: functional
T3 sequence (P35236 whole entry): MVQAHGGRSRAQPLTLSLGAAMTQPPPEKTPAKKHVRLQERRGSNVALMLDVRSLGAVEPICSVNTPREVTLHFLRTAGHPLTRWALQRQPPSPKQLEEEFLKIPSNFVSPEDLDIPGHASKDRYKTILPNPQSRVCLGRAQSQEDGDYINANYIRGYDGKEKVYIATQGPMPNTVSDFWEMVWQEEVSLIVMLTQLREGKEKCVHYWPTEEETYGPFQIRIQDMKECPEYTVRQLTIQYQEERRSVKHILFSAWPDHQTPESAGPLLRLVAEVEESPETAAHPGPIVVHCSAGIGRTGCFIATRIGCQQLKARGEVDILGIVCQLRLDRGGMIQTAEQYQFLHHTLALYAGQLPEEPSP

[10] = target: T4, Dual specificity protein phosphatase 6 (Rattus norvegicus, UniProt Q64346); type: functional
T4 sequence (Q64346 whole entry): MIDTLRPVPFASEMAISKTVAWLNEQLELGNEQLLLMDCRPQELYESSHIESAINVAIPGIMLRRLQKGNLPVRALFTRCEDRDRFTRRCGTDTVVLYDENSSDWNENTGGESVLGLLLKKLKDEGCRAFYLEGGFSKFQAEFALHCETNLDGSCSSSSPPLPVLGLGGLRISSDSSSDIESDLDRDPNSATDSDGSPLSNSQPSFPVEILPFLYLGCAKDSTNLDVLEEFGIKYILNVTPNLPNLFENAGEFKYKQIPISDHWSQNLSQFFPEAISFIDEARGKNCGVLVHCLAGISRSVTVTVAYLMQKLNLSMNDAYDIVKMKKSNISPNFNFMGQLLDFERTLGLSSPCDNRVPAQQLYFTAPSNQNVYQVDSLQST

[11] = target: Glyceraldehyde-3-phosphate dehydrogenase (Homo sapiens, UniProt P04406)
Chain of Glyceraldehyde-3-phosphate dehydrogenase (P04406 whole entry): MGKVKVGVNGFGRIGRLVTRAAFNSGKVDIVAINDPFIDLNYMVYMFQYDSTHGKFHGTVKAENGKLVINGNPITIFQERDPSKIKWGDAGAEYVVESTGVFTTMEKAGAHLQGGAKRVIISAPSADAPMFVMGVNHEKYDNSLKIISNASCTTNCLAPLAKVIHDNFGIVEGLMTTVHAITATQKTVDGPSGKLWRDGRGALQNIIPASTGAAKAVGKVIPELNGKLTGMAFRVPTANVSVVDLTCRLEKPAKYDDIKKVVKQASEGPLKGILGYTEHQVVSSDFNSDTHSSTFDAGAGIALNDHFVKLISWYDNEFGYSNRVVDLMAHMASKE

[12] = target: T4, Dual specificity protein phosphatase 6
INS1 = test: INS-1E survival protection against cytokine death – cell-based, luminescence, retest, dose response (AID 449756); type: functional; conditions: Rattus norvegicus;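 also: cell death triggered by IL-1 beta plus TNF-alpha plus IFN-gamma mixture; protective hits raise ATP signal compared with cytokine alone wells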
Paired box protein Pax-8 = Paired box protein Pax-8 (Homo sapiens, UniProt Q06710); test: PAX8 transcriptional activity inhibition in RMG-I – RMG-I cells, luciferase, cherry-pick, dose response (AID 687027); type: functional, cell-based;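 also: luciferase reporter driven by Pax8 target thyroperoxidase promoter measured by SteadyGlo luminescence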
Chain of Paired box protein Pax-8 (Q06710 whole entry): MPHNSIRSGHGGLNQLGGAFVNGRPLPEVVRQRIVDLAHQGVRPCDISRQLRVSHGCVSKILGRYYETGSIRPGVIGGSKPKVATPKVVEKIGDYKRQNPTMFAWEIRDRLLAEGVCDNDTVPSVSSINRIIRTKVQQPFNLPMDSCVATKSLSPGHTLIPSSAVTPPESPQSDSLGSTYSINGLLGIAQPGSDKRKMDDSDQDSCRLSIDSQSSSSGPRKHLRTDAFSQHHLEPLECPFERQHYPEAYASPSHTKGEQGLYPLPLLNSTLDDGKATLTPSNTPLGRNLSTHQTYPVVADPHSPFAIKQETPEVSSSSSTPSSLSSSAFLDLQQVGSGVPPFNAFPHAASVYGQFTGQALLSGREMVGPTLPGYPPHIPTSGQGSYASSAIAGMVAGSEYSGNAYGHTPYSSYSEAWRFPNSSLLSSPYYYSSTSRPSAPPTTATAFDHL

Nonstructural protein 1 = Nonstructural protein 1 (Influenza A virus, UniProt Q194T2); type: functional, Influenza A virus (A/California/07/2009(H1N1))
Chain of Nonstructural protein 1 (Q194T2 whole entry): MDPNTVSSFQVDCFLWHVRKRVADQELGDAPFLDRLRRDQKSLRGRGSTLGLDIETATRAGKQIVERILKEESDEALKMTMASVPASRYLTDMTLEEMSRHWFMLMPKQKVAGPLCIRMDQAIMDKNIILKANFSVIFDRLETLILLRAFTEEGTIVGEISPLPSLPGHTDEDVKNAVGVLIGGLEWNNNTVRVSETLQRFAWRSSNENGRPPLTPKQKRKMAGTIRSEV

[13] = NIH3T3 cell viability loss – ATP luminescence, mouse fibroblasts, counter-screen, dose response (AID 2010); type: functional, cell-based;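 also: cells exposed to compound for about 90 hours before reading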
cells [14] = type: functional, cell-based
[15] = NIH-3T3 fibroblast cytotoxicity, dose response, cytotoxicity control, cell-based, fluorescence, Alamar Blue, secondary assay (AID 2327); type: functional;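 also: NIH-3T3 mouse fibroblasts cultured with fluconazole at 8 µg/mL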
[16] = Luminescence-based counterscreen assay for KLF5 inhibitors: dose response cell-based high throughput screening assay to identify cytotoxic compounds using the IEC-6 intestinal epithelial cell line. [Related pubchem assays: 1700 (Primary screen.), 1834 (Confirmation screen.), 1858 (Summary AID.), 1905 (Counterscreen.)]; type: functional
cells [17] = type: functional, cell-based; remark: listed apart in the source
[18] = target: T5, Heat shock factor protein 1 (Mus musculus, UniProt P38532); test: decrease of HSF1-responsive luciferase luminescence – cell-based, NIH3T3, dose retest, confirmation (AID 2382); type: functional;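 also: NIH3T3 fibroblasts with HSF1-driven luciferase reporter stressed by proteasome inhibitor MG132; luminescence from HSF1-driven luciferase expression after 8 hours of MG132 stress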
T5 sequence (P38532 whole entry): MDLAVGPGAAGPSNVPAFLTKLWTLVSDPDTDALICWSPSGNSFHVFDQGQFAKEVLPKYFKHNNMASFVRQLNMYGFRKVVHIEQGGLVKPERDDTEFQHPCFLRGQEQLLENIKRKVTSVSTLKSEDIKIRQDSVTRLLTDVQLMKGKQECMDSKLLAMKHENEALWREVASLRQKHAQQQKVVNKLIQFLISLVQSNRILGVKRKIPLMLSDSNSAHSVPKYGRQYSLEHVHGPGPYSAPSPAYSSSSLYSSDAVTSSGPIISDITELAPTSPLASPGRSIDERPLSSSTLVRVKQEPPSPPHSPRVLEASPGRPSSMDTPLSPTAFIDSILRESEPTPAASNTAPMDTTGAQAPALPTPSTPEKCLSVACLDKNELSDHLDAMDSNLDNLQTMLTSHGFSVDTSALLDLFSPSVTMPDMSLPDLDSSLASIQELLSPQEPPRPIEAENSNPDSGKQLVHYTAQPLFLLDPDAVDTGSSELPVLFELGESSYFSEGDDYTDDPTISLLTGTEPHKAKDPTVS

[19] = Trypanosoma cruzi growth suppression in host cells – NIH3T3 host cells, beta-gal luminescence, confirmation (AID 2044); type: functional, cell-based;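 also: intracellular parasites grown in NIH/3T3 mouse fibroblasts as host cells; luminescent beta-galactosidase reporter signal from transgenic T. cruzi replicating inside host cells; inhibitors lower the luminescence signal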
[20] = fluconazole-exposed Candida albicans growth modulators – fluorescence, retest, confirmation (AID 2467); type: functional, cell-based
[21] = HIV-1 AD8 envelope cell-cell fusion blockers – cherry-pick, dose response (AID 652062); type: functional, cell-based;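 also: luciferase signal from cell-cell fusion driven by HIV-1 clade B AD8 Env; potency is for inhibitors of fusion seen as a drop in luminescence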
[22] = blockers of HIV-1 envelope-mediated cell-cell fusion – cherry-pick, dose response (AID 652057); type: functional, cell-based
[23] = off-target signal loss in HeLa-CEM21 co-culture – HeLa F-luc CTL cells, cherry-picked, counter-screen for HIV-1 Env fusion inhibitor project, dose response (AID 652040); type: functional, cell-based;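 also: potency for signal decrease marking cytotoxic or nonspecific inhibition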
[24] = blockers of HIV-1 ZM109 envelope-driven cell-cell fusion – HeLa effector, CEM target cells, luciferase, cherry-pick, dose response (AID 652058); type: functional, cell-based;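 also: luciferase signal from HIV-1 Env mediated cell-cell fusion of effector and target cells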
fMet-Leu-Phe receptor = fMet-Leu-Phe receptor (Homo sapiens, UniProt P21462); test: formyl peptide receptor binders – dose response (AID 519); type: functional
Chain of fMet-Leu-Phe receptor (P21462 whole entry, the tested form may be a part): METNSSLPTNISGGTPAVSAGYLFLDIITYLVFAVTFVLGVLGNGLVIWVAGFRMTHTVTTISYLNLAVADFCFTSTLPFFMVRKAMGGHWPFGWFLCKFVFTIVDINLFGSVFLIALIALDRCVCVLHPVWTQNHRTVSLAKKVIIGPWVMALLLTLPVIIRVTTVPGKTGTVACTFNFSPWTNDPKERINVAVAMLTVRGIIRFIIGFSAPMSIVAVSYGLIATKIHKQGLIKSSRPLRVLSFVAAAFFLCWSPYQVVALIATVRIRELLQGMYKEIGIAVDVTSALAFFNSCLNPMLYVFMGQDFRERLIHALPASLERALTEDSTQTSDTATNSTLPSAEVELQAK

[25] = viability loss in CEM21 cells – cell-based, CellTiter-Glo luminescence, cherry-picked, cytotoxicity control for viral fusion inhibitor project, dose response (AID 652042); type: functional;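 also: potency for signal decrease meaning cytotoxicity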
[26] = target: T6, Rac GTPase-activating protein 1 (Homo sapiens, UniProt Q9H0H5); test: blockers of MgcRacGAP-driven Rac1 GTP hydrolysis – biochemical, ADP Hunter fluorescence, primary and confirmatory, confirmation (AID 624330); type: functional
T6 sequence (Q9H0H5 whole entry): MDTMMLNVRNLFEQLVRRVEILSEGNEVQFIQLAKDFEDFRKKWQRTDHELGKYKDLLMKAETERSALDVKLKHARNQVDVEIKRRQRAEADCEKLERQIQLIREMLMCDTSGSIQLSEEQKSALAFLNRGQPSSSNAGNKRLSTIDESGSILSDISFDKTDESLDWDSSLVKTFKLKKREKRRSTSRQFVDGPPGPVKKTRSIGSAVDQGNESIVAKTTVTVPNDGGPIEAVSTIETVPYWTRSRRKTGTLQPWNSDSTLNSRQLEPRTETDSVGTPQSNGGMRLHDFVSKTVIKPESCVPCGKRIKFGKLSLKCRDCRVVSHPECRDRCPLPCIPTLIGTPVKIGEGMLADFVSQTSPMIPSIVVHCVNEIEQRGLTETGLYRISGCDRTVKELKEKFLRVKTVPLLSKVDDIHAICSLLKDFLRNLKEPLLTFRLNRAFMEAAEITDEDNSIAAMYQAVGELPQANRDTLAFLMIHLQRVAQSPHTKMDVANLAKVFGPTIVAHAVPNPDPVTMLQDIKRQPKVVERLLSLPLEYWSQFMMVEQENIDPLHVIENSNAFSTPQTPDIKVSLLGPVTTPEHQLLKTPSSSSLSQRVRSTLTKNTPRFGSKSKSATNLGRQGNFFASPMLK

N#Cc1ccsc1NC(=O)c1ccc(Cl)c([N+](=O)[O-])c1
CC50 [1]: > 20 µM (active)
EC50 [2]: > 55.7 µM (not active)
CC50 [3]: 20.9 µM (active)
CC50 [4]: 13.9 µM (active)
EC50 [5]: > 55.7 µM (not active)

Cc1ccc(NC(Cc2cc(C)no2)c2ccccc2)cc1 (stereo not given)
IC50 [6]: 19.8 µM (not active)
IC50 [7]: 9.47 µM (active)

Cc1cc2cc(CNC(=O)C(C)Oc3ccccc3)ccc2n1C (stereo not given)
EC50 [8]: > 50 µM (active)

CCNC(=O)c1ccc(C2SCC(=O)N2CCc2ccccc2)cc1 (stereo not given)
EC50 [8]: > 50 µM (active)

CCCCCCCCCCCCCCCCCCC=CCCCCCC(=O)O
IC50 [9]: 0.801 µM (active)
IC50 [10]: > 100 µM (inactive)
IC50 [11]: > 100 µM (not active)
IC50 [12]: > 100 µM (inactive)

COc1ccccc1N1CCN(Cc2cc(Br)c(O)c3ncccc23)CC1
AC50 (INS1): 3.95 µM (active)
AC50 (Paired box protein Pax-8): 1.82 µM (active)
IC50 (Nonstructural protein 1): 15.4 µM (active)
EC50 [13]: 6.15 µM (active)
EC50 (cells [14]): 8.13 µM (active)
EC50 [15]: 19.4 µM (inconclusive)
IC50 [16]: 6.32 µM (active)
EC50 (cells [17]): > 350 µM (not active)
EC50 [18]: 0.482 µM (active)
EC50 [19]: 1.34 µM (active)
EC50 [20]: 2.22 µM (active)

Clc1ccc(C2CC(c3cccs3)n3ncnc3N2)cc1Cl (stereo not given)
IC50 [6]: 16 µM (not active)
AC50 [21]: 6.95 µM (active)
AC50 [22]: 7.3 µM (active)
AC50 [23]: 7.08 µM (active)
AC50 [24]: 7.81 µM (active)
Ki (fMet-Leu-Phe receptor): > 66.7 µM (inactive)
IC50 [7]: > 4.87 µM (active)
AC50 [25]: 56.8 µM (active)

Cc1c(O)ccc2c3c(c(=O)oc12)CCCC3
EC50 [2]: > 55.7 µM (not active)
IC50 [26]: 22.5 µM (active)
EC50 [5]: > 55.7 µM (not active)
